The record followed here is patent US20230263822A1, “MODULATION OF FACTOR 11 EXPRESSION” (Ionis Pharmaceuticals, Inc., priority 2008, published 2023).

One data set has as its system platelet aggregation. Description: Platelet aggregation assay, ADP and/or collagen (Example 45). As to conditions: escalating dose regimen. In kind it is in vivo, cynomolgus monkeys. The procedure:
(§1) Groups, each consisting of two male and three female monkeys, were injected subcutaneously with ISIS 416838, ISIS 416850, ISIS 416858, ISIS 416864, or ISIS 417002 in escalating doses. Antisense oligonucleotide was administered to the monkeys at 5 mg/kg three times per a week for week 1; 5 mg/kg twice per week for weeks 2 and 3; 10 mg/kg three times per week for week 4; 10 mg/kg twice per week for weeks 5 and 6; 25 mg/kg three times per week for week 7; and 25 mg/kg twice per week for weeks 8, 9, 10, 11, and 12. One control group, consisting of two male and three female monkeys, was injected subcutaneously with PBS according to the same dosing regimen. An additional experimental group, consisting of two male and three female monkeys, was injected subcutaneously with ISIS 416850 in a chronic, lower dose regimen. Antisense oligonucleotide was administered to the monkeys at 5 mg/kg three times per week for week 1; 5 mg/kg twice per week for week 2 and 3; 10 mg/kg three times per week for week 4; and 10 mg/kg twice per week for weeks 5 to 12. Body weights were measured weekly. Blood samples were collected 14 days and 5 days before the start of treatment and subsequently once per week for Factor 11 protein activity analysis in plasma, fibrinogen measurement, PT and aPTT measurements, bleeding times, and measurement of various hematologic factors. On day 85, the monkeys were euthanized by exsanguination while under deep anesthesia, and organs harvested for further analysis.
Platelet aggregation was initiated by adding 1 mmol/L ADP and/or 3 μg collagen (depending on the collection day, as outlined in Table 121) to plasma samples, and was allowed to proceed for 10 minutes. Aggregation was characterized by recording the change in the electrical resistance or impedance and the change in the initial slope of aggregation after platelet shape change. The aggregation test was performed twice per sample on each collection day and the average value was taken. The ISIS oligonucleotide, ISIS 416850, given with the chronic dose regimen is distinguished from the other oligonucleotides with an asterisk (*).

A short description of data set [1]: Tolerability in CD1 mice: liver function, ALT, AST, bilirubin, albumin (Example 33). The following applies: plasma, 50 mg/kg s.c. twice a week.
Protocol: A control group of five mice was injected subcutaneously with PBS for 2 weeks. All experimental groups (i.e. ASO treated mice at 2, 4, 6 weeks) were compared to the control group (i.e. PBS, 2 weeks).
To evaluate the effect of ISIS oligonucleotides on hepatic function, plasma concentrations of transaminases were measured using an automated clinical chemistry analyzer (Hitachi Olympus AU400e, Melville, N.Y.). […] Plasma levels of bilirubin and albumin were also measured using the same clinical chemistry analyzer and expressed in mg/dL.
Data set [2] can be described thus: Tolerability in Sprague-Dawley rats: liver function (Example 35). As to conditions: plasma, 50 mg/kg s.c. twice per week for 6 weeks.
The nature of data set [3]: Bleeding assay, Surgicutt Jr. device (Example 45). As to conditions: escalating dose regimen. The class given is in vivo, cynomolgus monkeys. Also on record: unit not given here. Here is the method:
as §1
On different days during the treatment period, bleeding assay was performed using a Surgicutt Jr. device (ITC, New Jersey). Monkeys were placed in monkey chair with their arm placed in a steady support. The arm was lightly shaved and a sphygmomanometer was placed on the upper arm. The cuff of the sphygmomanometer was inflated to 40 mm Hg and this pressure was maintained throughout the procedure. The area on the upper arm to be incised was cleansed with an antiseptic swab and the Surgicutt Jr device was used to make an incision over the lateral aspect, volar surface of the forearm, parallel to and 5 cm below the antecubital crease. At the exact moment the incision was made, a stopwatch was started. Every 30 seconds, blood from the incision was blotted out using a blotting paper without directly touching the incision, so that formation of the platelet plug was not disturbed. Blood was blotted out every 30 seconds until blood no longer stained the paper. The stopwatch was then stopped and the bleeding time determined. The sphygmomanometer was removed from the animal's arm, the incision site was antiseptically swabbed and a wound closure strip applied. The ISIS oligonucleotide, ISIS 416850, given with the chronic dose regimen is distinguished from the other oligonucleotides with an asterisk (*).

Data set [4] in a line: Tolerability in Sprague-Dawley rats: hematology assays (Example 35). The following applies: 50 mg/kg s.c. twice per week for 6 weeks; for HCT / MCH / MCHC / MCV: title says % control.
Protocol: A control group of four Sprague Dawley rats was injected subcutaneously with PBS twice per week for 6 weeks. Body weight measurements were taken before and throughout the treatment period. Urine samples were taken before the start of treatment. Three days after the last dose, urine samples were taken and the rats were sacrificed. Organ weights were measured and blood was collected for further analysis.
Blood obtained from all rat groups were sent to Antech Diagnostics for hematocrit (HCT), mean corpuscular volume (MCV), mean corpuscular hemoglobin (MCV), and mean corpuscular hemoglobin concentration (MCHC) measurements and analyses, as well as measurements of various blood cells, such as WBC (neutrophils, lymphocytes and monocytes), RBC, and platelets as well as hemoglobin content.
On the set-up of data set [5]: species or system CD1 mice. As to conditions: mouse, in vivo, sc, 50 mg/kg. The procedure: The concentration of the full-length oligonucleotide was measured. The method used is a modification of previously published methods (Leeds et al., 1996; Geary et al., 1999) which consist of a phenol-chloroform (liquid-liquid) extraction followed by a solid phase extraction. An internal standard (ISIS 355868, a 27-mer 2′-O-methoxyethyl modified phosphorothioate oligonucleotide, […], designated herein as SEQ ID NO: 270) was added prior to extraction. […] The results are presented in Table 85 expressed as μg/g liver tissue.

For the substance “ISIS 416838: MOE gapmer, nucleobases 1018 to 1042 of SEQ ID NO: 1 (Table 6) (antisense GCAACCGGGATGATGAGTGC; MOE gapmer, wing and gap sizes not given here)”, the platelet aggregation with platelet aggregation (day 15 (with ADP)) is given as 15 Ohms; in the data set with platelet aggregation (day 36 (with ADP)), 8 Ohms; with platelet aggregation (day 43 (with collagen)), 16 Ohms; in the data set with platelet aggregation (day 57 (with ADP)), 7 Ohms; in the data set with platelet aggregation (day 64 (with collagen)), 13 Ohms; in the data set with platelet aggregation (day 78 (with ADP)), 11 Ohms. In addition, the platelet aggregation with platelet aggregation (day 85 (with ADP)) was 15 Ohms; in the data set on platelet aggregation (day 85 (with collagen)), 24 Ohms; in the data set with platelet aggregation (day −5 (with collagen)), 15 Ohms. Besides, the ALT is 61 IU/L in data set [1] (2 weeks), 41 IU/L in data set [1] (4 weeks), 141 IU/L in data set [1] (6 weeks) and 5 IU/L in data set [2]. For the same substance, the AST is given as 106 IU/L in data set [1] (2 weeks), 73 IU/L in data set [1] (4 weeks), 107 IU/L in data set [1] (6 weeks) and 2 IU/L in data set [2]. For the same substance, the Albumin is 3.5 in data set [1] (2 weeks), 3.8 in data set [1] (4 weeks), 3.6 in data set [1] (6 weeks) and 2 in data set [2]. The Bilirubin in data set [1] (2 weeks) is 0.57 mg/dL; in data set [1] (4 weeks) it was 0.24 mg/dL; in data set [1] (6 weeks), 0.20 mg/dL; in data set [2] it was 4 mg/dL. Also, the bleeding time in data set [3] (day 15) is given as 167; in data set [3] (day 22), 165; in data set [3] (day 36) it was 166; in data set [3] (day 43), 120; in data set [3] (day 57) it was 238; in data set [3] (day 64), 131. The bleeding time is listed as 145 in data set [3] (day 78), 201 in data set [3] (day 85), 150 in data set [3] (day −5) and 200 in data set [3] (day −14). The Platelets in data set [4] was 27 10^3/μL. Also, the RBC in data set [4] was 4. This substance also registered a WBC in data set [4] of 13 nL⁻¹. In data set [4], this substance displayed a lymphocytes of 3%. Also, the monocytes in data set [4] is given as 6%. In data set [4], this substance yielded a neutrophils of 17%. In data set [4], this substance had an HCT of 5%. This substance also yielded an MCH in data set [4] of 2. The same substance came in with an MCHC in data set [4] of 5%. Besides, the MCV in data set [4] turned out to be 4.

Take “412225 (antisense GCAGCGGACGGCATTGGTGC; 5-10-5 MOE gapmer, further chemistry not given here) [compound 412225]”: the “Half-Life in the liver” value in data set [5] is on record as 20.7 days.

With “416856 (antisense GGCATTGGTGCACAGTTTCT; 5-10-5 gapmer, further chemistry not given here) [compound 416856]”, the “Half-Life in the liver” value in data set [5] came to 19.2 days.

With “ISIS 417002: MOE gapmer, nucleobases 1275 to 1318 of SEQ ID NO: 1 (Table 8) (antisense GGTGCACAGTTTCTGGCAGG; MOE gapmer, wing and gap sizes not given here)”, the platelet aggregation with platelet aggregation (day 15 (with ADP)) is listed as 16 Ohms; in the data set on platelet aggregation (day 36 (with ADP)), 13.9 Ohms; in the data set with platelet aggregation (day 43 (with collagen)), 19 Ohms; in the data set on platelet aggregation (day 57 (with ADP)), 18 Ohms; in the data set with platelet aggregation (day 64 (with collagen)), 18 Ohms; in the data set on platelet aggregation (day 78 (with ADP)), 18 Ohms. Further, the values for the platelet aggregation with platelet aggregation (day 85 (with ADP)), in the data set on platelet aggregation (day 85 (with collagen)) and in the data set with platelet aggregation (day −5 (with collagen)) were 22 Ohms, 24 Ohms and 21 Ohms, respectively. Moreover, the ALT in data set [1] (2 weeks) was 71 IU/L; in data set [1] (4 weeks) it was 138 IU/L; in data set [1] (6 weeks), 2579 IU/L; in data set [2], 44 IU/L. The AST in data set [1] (2 weeks) is recorded as 96 IU/L; in data set [1] (4 weeks) it was 87 IU/L; in data set [1] (6 weeks), 1166 IU/L; in data set [2], 11 IU/L. In addition, the Albumin in data set [1] (2 weeks) was 3.2; in data set [1] (4 weeks) it was 3.4; in data set [1] (6 weeks), 3.4; in data set [2], 3. Also, the Bilirubin amounted to 0.50 mg/dL in data set [1] (2 weeks), 0.25 mg/dL in data set [1] (4 weeks), 0.29 mg/dL in data set [1] (6 weeks) and 12 mg/dL in data set [2]. The bleeding time in data set [3] (day 15) amounted to 174; in data set [3] (day 22), 194; in data set [3] (day 36) it was 186; in data set [3] (day 43) it was 120; in data set [3] (day 57), 206; in data set [3] (day 64), 146. Further, the bleeding time in data set [3] (day 78) came out at 163; in data set [3] (day 85), 182; in data set [3] (day −5) it was 175; in data set [3] (day −14) it was 185. In addition, the Platelets in data set [4] was 7 10^3/μL. This substance came in with an RBC in data set [4] of 5. Moreover, the WBC in data set [4] came out at 23 nL⁻¹. Also, the lymphocytes in data set [4] came to 4%. For the same substance, the monocytes in data set [4] was determined as 25%. In addition, the neutrophils in data set [4] is 22%. The substance also showed an HCT in data set [4] of 7%. In data set [4], this substance showed an MCH of 3. Also, in data set [4], the MCHC was 5%. This substance also displayed an MCV in data set [4] of 7.

Regarding “413482 (antisense GGACGGCATTGGTGCACAGT; 5-10-5 MOE gapmer, further chemistry not given here) [compound 413482]”, in data set [5], the “Half-Life in the liver” value was 19.5 days.

With “412223 (antisense ACAGTTTCTGGCAGGCCTCG; 5-10-5 MOE gapmer, further chemistry not given here) [compound 412223]”, the “Half-Life in the liver” value in data set [5] stood at 21.9 days.

Consider “412224 (antisense GCATTGGTGCACAGTTTCTG; 5-10-5 MOE gapmer, further chemistry not given here) [compound 412224]”, for which the “Half-Life in the liver” value in data set [5] was determined as 16.6 days.
